Data as given in patent US6812246B2, “Aminoflavone compounds, compositions, and methods of use thereof” (The United States of America as represented by the …, priority 2000, dated 2004).
Values after ≈ are worked out from the molar mass of the structure shown. Read-outs that look alike come from different tables or passages of the source.

What was measured:
[1] = Visual solubility evaluation in buffer at fixed concentration of 5 mg/mL; type: physicochemical; details: for solubility: aqueous buffer, water solubility determined visually at fixed concentration of 5 mg/mL
Description: This Example illustrates the desirable solubility characteristics of the aminoflavone compounds of the present invention. In Table 2 below, the water solubility of compounds 1a-d of Table 1 are set forth at different pH with a citrate or phosphate buffer, as indicated. Solubility was determined visually at a fixed concentration of 5 mg/mL.

[2] = system: panel of 60 different human tumor cell lines; assay: NCI 60 cell-line human tumor screen (sulforhodamine B, 48 hour incubation); type: cell-based; details: FIG. 1B; several human cancer cell lines, particularly breast (MCF7), ovarian (OVCAR-5), renal (CAKI-1), colon (SW-620)
Description: The NCI screen consists of a panel of 60 different human tumor cell lines against which compounds are tested over a defined range of concentrations to determine the relative degree of growth inhibition or cytotoxicity against each cell line. The design and operation of the screen is such that for each compound tested, both the absolute and relative sensitivities of individual cell lines comprising the screen are sufficiently reproducible that a characteristic profile or “fingerprint” of cellular response is generated. Compounds that are active in the NCI screen show pronounced differential tumor growth-inhibitory and/or cytotoxic effects to the diverse cell lines comprising the 60 cell-line panel. The degree of differential response between the most and least sensitive lines typically may be relatively small (e.g., 2-10 fold), or occasionally as great as 3-4 orders of magnitude. […]
In the screening assay, each agent is tested over a broad concentration range against every cell line in the panel. […] Test compounds are evaluated at five 10-fold dilutions. […] Optical densities are measured on automated plate readers, followed by computerized data acquisition, processing, storage, and availability for display-and analysis. […]

[3] = Akama et al., cited from earlier work
[4] = pH 3, citrate buffer, read-out: Visual solubility, pH 3
[5] = pH 5, citrate buffer, read-out: Visual solubility, pH 5
[6] = pH 7, phosphate buffer, read-out: Visual solubility, pH 7
[7] = pH 3, citrate buffer, 5 mg/mL, visual

SMILES	solubility [1, 4] [µg/mL]	solubility [1, 5] [µg/mL]	solubility [1, 6] [µg/mL]	solubility at pH 3 (text summary of Table 2) [1, 7]	solubility at pH 5 (text summary of Table 2) ([1]; pH 5, citrate buffer, 5 mg/mL, visual)	tumor growth-inhibiting activity (GI50 mean-graph) [2]	solubility in ethanol ([3]; ethanol, J. Med. Chem., at 2067) [µg/mL]	solubility in water ([3]; water, J. Med. Chem., 41, 2056-2067 (1998))
Cc1c(F)c(NC(=O)CN(C)C)c2c(=O)cc(-c3ccc(NC(=O)CN(C)C)c(F)c3)oc2c1F [Compound 1d, 6,8-difluoro-7-methyl-5-(dimethylamino)acetamido-2-[4-(dimethylamino)acetamido-3-fluorophenyl]-4H-1-benzopyran-4-one]	> 5000	> 5000	< 5000	fully soluble	fully soluble			
Cc1c(F)c(N)c2c(=O)cc(-c3ccc(NC(=O)CN(C)C)c(F)c3)oc2c1F [Compound 1c, 5-amino-6,8-difluoro-7-methyl-2-[4-(dimethylamino)acetamido-3-fluorophenyl]-4H-1-benzopyran-4-one]	< 5000	< 5000	< 5000					
Cc1c(F)c(N)c2c(=O)cc(-c3ccc(NC(=O)[C@@H](N)CCCCN)c(F)c3)oc2c1F [Compound 1a, 5-amino-6,8-difluoro-2-(3-fluoro-4-[(L-lysyl)amino]phenyl]-7-methyl-4H-1-benzopyran-4-one]	> 5000	< 5000	< 5000	fully soluble		demonstrated tumor growth-inhibiting activity		
Nc1ccc(-c2cc(=O)c3c(N)c(F)cc(F)c3o2)cc1F [5,4′-diamino-6,8,3′-trifluoroflavone]							1200 (≈ 3.92 mM)	less than 0.2 μg/mL
Br.Br.Br.Cc1c(F)c(N)c2c(=O)cc(-c3ccc(NC(=O)C(N)CCCNC(=N)N)c(F)c3)oc2c1F (stereo not shown) [Compound 1b, 5-amino-2-[4-[[2-amino-5-guanidinopentanoyl]amino]-3-fluorophenyl]-6,8-difluoro-7-methyl-4H-1-benzopyran-4-one, trihydrobromide]	> 5000	< 5000	< 5000	fully soluble				
